Data published in PMC7707092, “Discovery and characterization of ORM‐11372, a novel inhibitor of the sodium‐calcium exchanger with positive inotropic activity” (British Journal of Pharmacology, 2020).
Like-named read-outs stand apart in the source and are kept apart here.

Tests used:
healthy rats = experiment: In vivo haemodynamics in healthy rats (supplement); design: species or system rat
Excerpt: In vivo haemodynamics in healthy rats
Experimental Animals and General Study Protocol
Rat was selected to the study as it is the most widely used rodent species in the toxicology studies performed for the small molecules during the drug development. […]
All animal experiments were made according to European Community Guidelines for the use of experimental animals and approved by Finnish National Animal Experiment Board. All studies complied with the ARRIVE guidelines, (NC3Rs Reporting Guidelines Working Group, 2010).
Specific pathogen free animals were housed in half -barrier rooms where special protecting clothing for personnel was required. Animal rooms were cleaned regularly 3 times per week and cages and bottles were […]
changed regular intervals once a week. Temperature was maintained at 22 ± 2°C and humidity at 55 ± 15%.
Light-dark cycle was lights on from 06.00 to 20.00h.
Male Sprague-Dawley rats (Harlan, Netherlands B.V.) were housed in polycarbonate cages (Makrolon® IV with stainless steel wire mesh lids). Maximally 5 rats were housed per cage with aspen chip bedding (Tapvei Ky, Kaavi, Finland). Rats had free access to water (twice filtered, Espoon Vesi) and rodent diet (SDS RM1
(P) SQC pelleted diet, Special Diet Services Ltd, Witham, England). Acclimation period before experiments was at least 5 days. Healthy 10-12 weeks aged weighing 300-400 g rats were randomized to ORM-11372, dobutamine or vehicle group.
At the end of the haemodynamic experiments, rats were terminated with an overdose of pentobarbital.
Anesthesia and ventilation
Rats were anaesthetised with isoflurane (2.25-2.5 %, Baxter) in carbogen (95 % O2 and 5 % CO2) and nitrous oxide (1:1) using a small rodent ventilator (Ugo Basile 7025, ~10 ml/kg, 60 strokes/min). The rats were infused with 0.9 % NaCl in […] at the stabilization and baseline level. Animals were placed on a heating table (+38°C). Tracheas were cannulated.
Systemic blood (SP) and left ventricular pressures (LVP) were measured with pressure transducers (BP:
Isotec, Hugo Sachs Elektronic, Germany; LVP: Mikro-Tip transducer SPR-249, Millar Instruments, USA). The signal was amplified (DC-bridge amplifier type 660, Hugo Sachs Elektronik, Germany), digitised (I/O connector block type SCB-68, National Instruments, USA), recorded and analysed (IHME 1.0.9, Fision Ltd, Finland). Left ventricular inotropic effect (LV +dP/dtmax) and relaxation (LV -dP/dtmin) and heart rate (HR) were analysed from LVP signal.
Blood sampling for the evaluation of plasma levels of the drug
At the end of each infusion, the blood samples (300-500 µl) were taken into chilled EDTA polypropylene tube (CapiJect®, Terumo) and centrifuged (4000 rpm, 10 min, at 4°C). Plasma was immediately frozen in polypropylene tubes and stored at –20°C. ORM-11372 and dobutamine were extracted from plasma samples using a liquid–liquid extraction and analysed using liquid chromatography–tandem mass spectrometry (Agilent Technologies series 1100 liquid chromatographic system and a Sciex LC-MS/MS API 4000 mass spectrometry). The lower limit of quantification for total plasma concentrations were 32.0 and 5.00 ng/ml from total for ORM-11372 and dobutamine, respectively. […]
The effects of dobutamine on blood pressure varies partially due to the use of racemate as active ingredient in the pharmaceutical formulation. (-)-dobutamine is α1-agonist and therefore causes increases in cardiac output and peripheral resistance. (+)-dobutamine acts via β1- and β2-adrenoceptors which leads to increase in heart rate and reduction in blood pressure 16.
Figure S20 Haemodynamics in healthy rats
Effects of ORM-11372 and dobutamine on haemodynamics in isoflurane anesthetized 10-12 weeks aged male Sprague-Dawley rats (Harlan, Netherlands B.V.) weighing 300-400 g. Shown are mean ± SEM and individual effects on the left ventricular contractility (LV+dP/dtmax, panel A), relaxation (LV-dP/dtmax, panel B), heart rate (panel C), and systolic arterial blood pressure (SAP, paned D). […]

[1] = biological target: hERG KV11.1 current (I hERG) (Homo sapiens, UniProt Q12809); experiment: KV11.1 channel current (I hERG), QPatch automated patch‐clamp, CHO–hERG cells; assay type: cell-based
Excerpt: The hERG‐encoded voltage‐dependent potassium channel current (I hERG) cells to be studied were harvested with Detachin solution and either diluted with a volume of CHO cell serum‐free media (supplemented with 100 IU·ml^−1 of penicillin/streptomycin and 25‐mM HEPES) to obtain cells, for which the cell density was ~4 x10^6 cells·ml^−1, or plated on glass coverslips and used on the following 1–2 days. HEK 293 cells were transiently transfected using lipofectamine (Invitrogen, USA), with a human sodium voltage‐gated channel subunit 5 (hSCN5) A (transcript variant 2)‐containing plasmid, in Optimem medium. […]
In addition, after loading the CHO–hERG cell suspension, whole‐cell voltage‐clamp values were recorded at room temperature on a QPatch 16× automated patch‐clamp (Sophion Biosciences), in the single‐hole mode. […] The hERG tail current was measured as the difference between the peak tail current amplitude during the repolarization step and leak current measurement step. Subsequently, the voltage dependence of the block was also assessed, by carrying out depolarization for 4 s, from −80 to +60 mV in 10‐mV steps, before and after the addition of 20‐μM ORM‐11372 (n = 7). The peak tail current elicited during the 5 s repolarization step to −50 mV was measured and plotted against the preceding depolarization step voltage values.

NCX = tested on: NCX; design: method as in Jost et al., 2013; Kohajda et al., 2016; details: Dog, reference not given, ref Jost et al., 2013, Kohajda et al., 2016, cited from earlier work
[2] = 4 nM up to 92 nM free plasma concentration

Sequence of hERG KV11.1 current (I hERG) (Q12809 whole entry): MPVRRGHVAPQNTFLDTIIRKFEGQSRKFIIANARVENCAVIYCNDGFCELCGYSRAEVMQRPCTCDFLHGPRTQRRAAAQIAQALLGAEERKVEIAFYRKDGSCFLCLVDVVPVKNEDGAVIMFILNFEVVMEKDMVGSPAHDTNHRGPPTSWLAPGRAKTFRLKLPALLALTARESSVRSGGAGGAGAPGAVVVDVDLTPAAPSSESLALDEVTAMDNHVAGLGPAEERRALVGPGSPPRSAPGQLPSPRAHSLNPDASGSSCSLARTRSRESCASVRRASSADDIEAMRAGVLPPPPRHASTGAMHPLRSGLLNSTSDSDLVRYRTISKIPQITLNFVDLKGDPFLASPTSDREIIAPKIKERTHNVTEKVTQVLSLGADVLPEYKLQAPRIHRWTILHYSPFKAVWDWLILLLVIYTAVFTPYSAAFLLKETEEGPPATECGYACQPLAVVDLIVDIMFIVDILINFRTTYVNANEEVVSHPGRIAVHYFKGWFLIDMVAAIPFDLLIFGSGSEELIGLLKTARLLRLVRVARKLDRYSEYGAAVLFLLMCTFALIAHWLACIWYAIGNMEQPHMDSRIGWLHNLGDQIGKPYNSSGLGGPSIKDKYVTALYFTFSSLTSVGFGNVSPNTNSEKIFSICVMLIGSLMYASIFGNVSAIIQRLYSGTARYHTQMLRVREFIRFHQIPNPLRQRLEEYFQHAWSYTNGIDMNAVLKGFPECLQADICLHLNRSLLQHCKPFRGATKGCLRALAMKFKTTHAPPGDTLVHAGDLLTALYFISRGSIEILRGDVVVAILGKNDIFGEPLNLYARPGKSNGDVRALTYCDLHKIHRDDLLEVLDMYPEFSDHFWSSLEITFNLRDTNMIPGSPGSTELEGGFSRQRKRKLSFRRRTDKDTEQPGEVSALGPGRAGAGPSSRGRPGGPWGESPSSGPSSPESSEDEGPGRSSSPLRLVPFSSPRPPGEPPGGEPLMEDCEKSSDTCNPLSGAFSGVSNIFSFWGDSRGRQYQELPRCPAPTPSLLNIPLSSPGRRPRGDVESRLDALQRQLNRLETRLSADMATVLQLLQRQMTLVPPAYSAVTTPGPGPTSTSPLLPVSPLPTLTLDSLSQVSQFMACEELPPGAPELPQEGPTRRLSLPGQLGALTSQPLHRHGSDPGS

Nc1cccc(-c2ccc(CNc3ccc(F)cc3)o2)c1 [ORM‐11372]
absolute maximum positive inotropic effect (healthy rats): 44%
free plasma concentration achieving 25% positive inotropic effect (healthy rats): 36 ± 1.4 nM
free plasma concentration at absolute maximum positive inotropic effect (healthy rats): 351 ± 92 nM
free plasma concentration at maximum inotropic effect without any other effects (healthy rats): 92 ± 8 nM
free plasma concentration at the 10±2% (ORM-11372) / 16±3% (dobutamine) inotropic effect (healthy rats): 4 ± 0.3 nM
left ventricular relaxation (healthy rats; [2]): did not affect
systolic blood pressure (healthy rats; [2]): did not affect
improvement of relaxation (tendency) (healthy rats; 36 nM free plasma): 7.5±4.5%
effective free concentration range in rat plasma (healthy rats; Figure S20): 4 to 300 nM
maximum inotropic effect without any other effects (healthy rats; at 92±8 nM free plasma): 34±5%
positive inotropic effect (healthy rats; at free plasma concentration 4±0.3 nM (ORM-11372), 16±0.8 nM (dobutamine)): 10±2%
decrease in heart rate (healthy rats; free plasma concentrations higher than 240 nM): -7 to -12%
relaxation (healthy rats; high concentration (≥240 nM)): impaired relaxation
heart rate (healthy rats; up to 240 nM free plasma concentration): no effect
slope k of I hERG activation curve (Boltzmann fit) ([1]; 20 µM ORM-11372, n=7, control 6.9 ± 0.3 mV): 5.5 ± 0.1 mV
IC50 ([1]; automated patch‐clamp, room temperature): 19200 nM

O=C(CN1CCC(O)CC1)Nc1ccc(Oc2ccc3c(c2)CCC(c2ccccc2)O3)nc1 (stereo not drawn) [ORM-10962]
IC50 (NCX; read-out: IC50 NCX forward): 67 nM
IC50 (NCX; read-out: IC50 NCX reverse): 55 nM
